Each block holds one compound with its values, some of them ahead of it. Positions of bridges follow the written chain, without caps; N, C: chain ends. Non-standard residues stand in square brackets, D forms with d. Residues, ends and D or L forms follow the SMILES beside them. No end group written: not given here.
Legend:
[1] = tested on: dopaminergic TH-positive neurons injured with MPP+; test: Neuroprotective effect on dopaminergic TH-positive neurons injured with MPP+ (primary mesencephalic culture); format: cell-based, rat; conditions: MPP+ 4 μM, 48 h; for potency of retro-inverso peptides relative to their parent compounds and to full-length CDNF protein: stated for 'most cases'
Procedure: Neuroprotective effects of compounds 1-20 (SEQ ID NO:s 1-20, parent and retro-inverso) were tested in an in vitro model in which primary cultures of rat embryonic mesencephalic neurons were stressed with MPP+, the active metabolite of neurotoxin 1-methyl-4-phenyl-1,2,3,6-tetrahydropyridine (MPTP). MPP+ kills dopaminergic (TH-positive) neurons via a variety of toxic mechanisms, including mitochondrial dysfunction, generation of peroxynitrite, oxidative stress, ER stress and induction of apoptosis.
Rat dopaminergic neurons were cultured as described by Visanji et al., 2008. Briefly, the midbrains obtained from 15-day-old rat embryos (Janvier, France) were dissected, and the ventral portion of the mesencephalic flexure, a region of the developing brain rich in dopaminergic neurons, was used for the cell preparations. The midbrain cells were dissociated by trypsinization for 20 min at 37° C. […] The reaction was stopped by adding Dulbecco's modified Eagle's medium (DMEM) containing DNAase I grade II (0.5 mg/mL) and 10% of fetal calf serum (FCS). Cells were then mechanically dissociated by 3 passages through a 10 ml pipette. Cells were then centrifuged at 180×g for 10 min at +4° C. on a layer of BSA (3.5%) in L15 medium. The cell pellets was re-suspended in a defined culture serum-free medium consisting of Neurobasal (Invitrogen) supplemented with B27 (2%), L-glutamine (2 mM) and 2% of PS solution and 10 ng/ml of Brain-derived neurotrophic factor (BDNF) and 1 ng/mL of Glial-Derived Neurotrophic Factor (GDNF). […] The cells were seeded at a density of 40 000 cells/well in 96 well-plates (pre-coated with poly-L-lysine) and maintained in a humidified incubator at 37° C. in 5% CO2/95% air atmosphere. Half of the medium was changed every 2 days with fresh medium. On 96-wells plates, only 60 wells are used. To avoid any edge effect, the first and last lines and columns were not be used for culture and were filled with sterile water.
On day 6 of culture, CDNF or the compounds 1-20 (SEQ ID NO:s 1-20, parent and retro-inverso), were dissolved in culture medium and then pre-incubated with mesencephalic neurons for 4 hours before the MPP+ application. Four hours after the preincubation of the compounds, MPP+ was added to a final concentration of 4 μM, diluted in control medium still in presence of compounds for 48 h.
48 hours after intoxication, the cells were fixed by a solution of 4% paraformaldehyde in PBS, pH 7.3 for 20 min at room temperature. The cells were washed twice in PBS, and then permeabilized and non-specific sites were blocked with a solution of PBS containing 0.1% of saponin and 1% FCS for 15 min at room temperature. Next, the cells were incubated with (a) a monoclonal antibody anti-Tyrosine Hydroxylase (TH) produced in mouse at dilution of 1:1 0000 and with (b) a polyclonal antibody anti-alpha-synuclein (aSyn) antibody produced in rabbit at dilution of 1:400 in PBS containing 1% FCS, 0.1% saponin, for 2 h at room temperature.
48 hours after intoxication, the cell culture supernatant was removed, and the cells fixed by a solution of 4% paraformaldehyde in PBS, pH 7.3 for 20 min at room temperature. The cells were washed twice in PBS, and then permeabilized and non-specific sites were blocked with a solution of PBS containing 0.1% of saponin and 1% FCS for 15 min at room temperature. Then, the cells were incubated with a) a monoclonal Anti-Tyrosine Hydroxylase (TH) antibody produced in mouse at dilution of 1:10000 in PBS containing 1% FCS, 0.1% saponin, for 2 hours at room temperature, and b) a polyclonal anti-postsynaptic density protein-95 (PSD-95) antibody produced in rabbit at dilution of 1:200 in PBS containing 1% FCS, 0.1% saponin, for 2 h at room temperature. This antibody stains specifically synapses.
For each condition, pictures representing the whole well area were automatically acquired using ImageXpress (Molecular device) at 10× (20 pictures, for TH and a-syn) or at 40× magnification (60 pictures, for TH and PSD-95). […]

[2] = tested on: human hepatocytes; test: In vitro metabolic stability in human hepatocytes; conditions: 1 μM, 37° C., 0-60 min
[3] = target: nucleotide-binding domain of GRP78 (GRP78-NBD); test: Binding to GRP78-NBD Kd (μM)
Excerpt: Table printed on a drawing sheet, FIG. 5B
Head of the field: Binding to GRP78-NBD Kd (μM)
GRP78-NBD is shown in a to translucent surface model along with its cartoon trace. The Cys-Cys bond in compound 14 (SEQ ID NO: 14) is shown in sticks.
The binding affinities are obtained by microscale thermophoresis-based cell free assay.
GSK2606414 was used to inhibit PERK signaling and KIRA6 to inhibit IRE1alpha signaling. * p<0.05, ** p<0.01, *** p<0.001, **** p<0.0001 one-way ANOVA test with post-hoc Fisher's LSD test for pairwise comparison vs MPP+ negative control. #p<0.05, ##p<0.01, ###p<0.001, ####p<0.0001 one-way ANOVA test with post-hoc Fisher's LSD test for pairwise comparison between effect of compound alone and its combination with UPR signal inhibitor.
Where the first naming reader finds the target: head: Binding to GRP78-NBD Kd (μM)

[4] = In vivo pharmacokinetics after intravenous administration to rats; conditions: rat, 5 mg/kg intravenous bolus injection, male Sprague-Dawley rats, plasma; for clearance: read-out: CI
Procedure: Test compounds were intravenously (i.v.) administered to male Spraque-Dawley rats (about six weeks old, n=3 per compound) at 5 mg/kg. Blood samples were collected from jugular vein through implanted in-dwelling catheters (250 μl blood) into labelled polypropylene tubes containing anticoagulant (heparin) at 2 min, 5 min, 15 min, 30 min, 1 h, 2 h and 4 h after compound administration and held on wet ice for a maximum of 30 minutes. The blood samples were centrifuged for plasma separation (4° C., 21100 G, 5 min). Tolbutamide 500 ng/ml with 10% TFA in acetonitrile or in MeCN was used as an internal standard solution. The standard samples were prepared into rat plasma by spiking the matrix into concentrations 2-10 000 ng/ml of the analyte, respectively, and otherwise treated as the samples. To 50 μl aliquots of sample plasma was added 200 μl of internal standard. Samples were mixed (150 rpm, 15 min) and centrifugated (3000 rpm, 15 min). The analytical method was optimized for reaction monitoring chromatographic (peak shape & retention) shifts and mass spectrometric properties (ionization efficiency, MS/MS detection). Supernatants were is analyzed by UHPLC-TOF mass spectrometry using electrospray ionization. […]

[5] = tested on: 3D in vitro model of blood brain barrier; test: Permeation in a 3D in vitro model of blood-brain barrier; conditions: 500 nM, 2 h
[6] = tested on: rat hepatocytes; test: In vitro metabolic stability in rat hepatocytes; conditions: 1 μM, 37° C., 0-60 min
[7] = In vitro metabolic stability in rat plasma; format: in vitro ADME; conditions: 1 μM, 37° C., up to 120 min
Procedure: Metabolic stability of the retro-inverso and native control peptides was studied using rat plasma over the time period of 120 min, with initial test concentration of 1 μM. Samples were analysed using LC/QE-orbitrap-MS. Calculated half-life is based on compound disappearance in rat plasma.
The incubation was terminated by acetonitrile. […] Stock solutions was prepared using 50% DMSO, and the compounds were spiked 1/100 to incubation to have final DMSO content of 0.5%. […] For analysis of compounds 13-14 and 19-20 stock solutions were prepared with PBS, and samples were analyzed by UHPLC-ToF mass spectrometry. Enalapril 1 μM was used as a disappearance rate control.

Compound: EACARCEE ([dE][dA][dC][dA][dR][dC][dE][dE]; disulfide 3-6) [Compound 18] [listing 1 of 2 here]
- potency of retro-inverso peptides relative to their parent compounds and to full-length CDNF protein [1]: comparable

Compound: KEACARCEEGWSHLIQKLEAVRM [Compound 2]
- potency of retro-inverso peptides relative to their parent compounds and to full-length CDNF protein [1]: comparable

Compound: C[C@H](O)[C@@H](N)C(=O)N[C@H](CCCCN)C(=O)N[C@H](CCC(=O)O)C(=O)N[C@H](C)C(=O)N[C@@H]1CSSC[C@H](C(=O)N[C@H](CCC(=O)O)C(=O)N[C@H](CCC(=O)O)C(=O)NCC(=O)O)NC(=O)[C@@H](CCCNC(=N)N)NC(=O)[C@@H](C)NC1=O [Compound 6, TKEACARCEEG]
- stability in human hepatocytes as compared to parent compound [2]: significantly improved stability
- Kd [3]: 3.86 µM
- AUC(0-inf) [4]: 15500 ng·h/mL
- MRT [4]: 29.4 min
- Vd [4]: 0.16 L/kg
- half-life [4]: 24.5 min
- clearance [4]: 5.69 mL/min/kg
- ability to pass through the in vitro blood-brain barrier as compared to parent compound [5]: improved ability to pass
- stability in rat hepatocytes as compared to parent compound [6]: significantly improved stability
- potency of retro-inverso peptides relative to their parent compounds and to full-length CDNF protein [1]: comparable

Compound: KEACGKCTE ([dK][dE][dA][dC]G[dK][dC][dT][dE]; disulfide 4-7) [Compound 16]
- potency of retro-inverso peptides relative to their parent compounds and to full-length CDNF protein [1]: comparable

- Kd [3]: 6.2 µM
Compound: SKEACGGKCTEG ([dS][dK][dE][dA][dC]GG[dK][dC][dT][dE]G; disulfide 5-9) [Compound 12]

- Kd [3]: 1.23 µM
Compound: EACARCEE ([dE][dA][dC][dA][dR][dC][dE][dE]; disulfide 3-6) [Compound 18] [listing 2 of 2 here]

- AUC(0-inf) [4]: 4310 ng·h/mL
- MRT [4]: 22.9 min
- Vd [4]: 0.45 L/kg
- half-life [4]: 19.7 min
- clearance [4]: 19.5 mL/min/kg
- ability to pass through the in vitro blood-brain barrier as compared to parent compound [5]: improved ability to pass
Compound: C[C@H](O)[C@@H](NC(=O)[C@H]1CSSC[C@@H](NC(=O)[C@@H](C)NC(=O)[C@@H](CCC(=O)O)NC(=O)[C@@H](CCCCN)NC(=O)[C@H](N)CO)C(=O)NCC(=O)NCC(=O)N[C@H](CCCCN)C(=O)N1)C(=O)N[C@H](CCC(=O)O)C(=O)NCC(=O)O [Compound 12, SKEACGGKCTEG] (H-[dS][dK][dE][dA][dC]GG[dK][dC][dT][dE]G-OH; disulfide 5-9; N-terminus and C-terminus assumed)

- stability in rat plasma as compared to parent compound [7]: significantly improved stability
- AUC(0-inf) [4]: 7500 ng·h/mL
- MRT [4]: 19.2 min
- Vd [4]: 0.21 L/kg
- half-life [4]: 18.4 min
- clearance [4]: 11.4 mL/min/kg
- stability in rat hepatocytes as compared to parent compound [6]: significantly improved stability
Compound: C[C@@H](NC(=O)[C@@H](CCC(=O)O)NC(=O)[C@H](N)CCCCN)C(=O)N[C@@H]1CSSC[C@H](C(=O)N[C@H](CCC(=O)O)C(=O)N[C@H](CCC(=O)O)C(=O)O)NC(=O)[C@@H](CCCNC(=N)N)NC(=O)[C@@H](C)NC1=O [Compound 14, KEACARCEE] (H-[dK][dE][dA][dC][dA][dR][dC][dE][dE]-OH; disulfide 4-7; N-terminus and C-terminus assumed)

- Kd [3]: 3.21 µM
Compound: GEECRACAEKT (disulfide 4-7) [Compound 5]

- Kd [3]: 14.3 µM
Compound: ETCKGCAE (disulfide 3-6) [Compound 19]

- Kd [3]: 0.3 µM
Compound: EECRACAE (disulfide 3-6) [Compound 17]

- Kd [3]: 0.68 µM
Compound: KEACARCEE ([dK][dE][dA][dC][dA][dR][dC][dE][dE]; disulfide 4-7) [Compound 14]

Compound: TKEACAGRCEEG ([dT][dK][dE][dA][dC][dA]G[dR][dC][dE][dE]G; disulfide 5-9) [Compound 10]
- potency of retro-inverso peptides relative to their parent compounds and to full-length CDNF protein [1]: comparable

Compound: KEACGKCTEGWDDLIKKLEKVRL ([dK][dE][dA][dC]G[dK][dC][dT][dE]G[dW][dD][dD][dL][dI][dK][dK][dL][dE][dK][dV][dR][dL]; disulfide 4-7) [Compound 4]
- stability in human hepatocytes as compared to parent compound [2]: significantly improved stability
- ability to pass through the in vitro blood-brain barrier as compared to parent compound [5]: improved ability to pass
- stability in rat hepatocytes as compared to parent compound [6]: significantly improved stability
- potency of retro-inverso peptides relative to their parent compounds and to full-length CDNF protein [1]: comparable

Compound: CDNF: full-length cerebral dopamine neurotrophic factor protein (rhCDNF), unconventional neurotrophic factor
- alpha-synuclein (aSyn) aggregates / inclusions in TH-positive neurons [1]: reducing accumulation
- protection of TH-positive neurons, their neurites and synapses from MPP+ toxicity [1]: neuroprotective
